Several values for one entry are separate records, joined by “and”; a condition that tells them apart may be missing. Identical values can stand only once.
Legend:
Assay in all cases: biochemical
Parameters in all cases: endogenous in cells; host or cells: K562 cell extract; species or system K562 (extract); replicate k of n = 2 (each experiment ID is one independent experiment; two experiment IDs per compound)
Conditions in all cases: read-out: KDapp
ACVR1 = molecular target: T1, ACVR1 (Homo sapiens, UniProt Q04771)
T1 sequence (Q04771 1-509): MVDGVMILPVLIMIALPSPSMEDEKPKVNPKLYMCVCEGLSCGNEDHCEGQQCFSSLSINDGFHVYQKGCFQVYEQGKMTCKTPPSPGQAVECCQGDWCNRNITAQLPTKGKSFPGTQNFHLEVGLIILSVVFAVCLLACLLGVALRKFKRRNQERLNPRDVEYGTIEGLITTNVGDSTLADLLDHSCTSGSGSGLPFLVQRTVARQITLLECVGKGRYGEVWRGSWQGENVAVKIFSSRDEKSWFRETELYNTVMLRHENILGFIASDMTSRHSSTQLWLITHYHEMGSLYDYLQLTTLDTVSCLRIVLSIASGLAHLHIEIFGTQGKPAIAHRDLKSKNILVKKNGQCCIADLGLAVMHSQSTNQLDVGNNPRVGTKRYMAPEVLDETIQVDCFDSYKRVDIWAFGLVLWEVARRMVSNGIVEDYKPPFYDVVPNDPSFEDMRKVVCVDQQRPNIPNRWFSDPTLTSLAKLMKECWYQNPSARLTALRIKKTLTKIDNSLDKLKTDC

CDK2 = CDK2 (Homo sapiens, UniProt P24941)
TAOK2 = molecular target: T2, TAOK2 (Homo sapiens, UniProt Q9UL54)
T2 sequence (Q9UL54 1-1235): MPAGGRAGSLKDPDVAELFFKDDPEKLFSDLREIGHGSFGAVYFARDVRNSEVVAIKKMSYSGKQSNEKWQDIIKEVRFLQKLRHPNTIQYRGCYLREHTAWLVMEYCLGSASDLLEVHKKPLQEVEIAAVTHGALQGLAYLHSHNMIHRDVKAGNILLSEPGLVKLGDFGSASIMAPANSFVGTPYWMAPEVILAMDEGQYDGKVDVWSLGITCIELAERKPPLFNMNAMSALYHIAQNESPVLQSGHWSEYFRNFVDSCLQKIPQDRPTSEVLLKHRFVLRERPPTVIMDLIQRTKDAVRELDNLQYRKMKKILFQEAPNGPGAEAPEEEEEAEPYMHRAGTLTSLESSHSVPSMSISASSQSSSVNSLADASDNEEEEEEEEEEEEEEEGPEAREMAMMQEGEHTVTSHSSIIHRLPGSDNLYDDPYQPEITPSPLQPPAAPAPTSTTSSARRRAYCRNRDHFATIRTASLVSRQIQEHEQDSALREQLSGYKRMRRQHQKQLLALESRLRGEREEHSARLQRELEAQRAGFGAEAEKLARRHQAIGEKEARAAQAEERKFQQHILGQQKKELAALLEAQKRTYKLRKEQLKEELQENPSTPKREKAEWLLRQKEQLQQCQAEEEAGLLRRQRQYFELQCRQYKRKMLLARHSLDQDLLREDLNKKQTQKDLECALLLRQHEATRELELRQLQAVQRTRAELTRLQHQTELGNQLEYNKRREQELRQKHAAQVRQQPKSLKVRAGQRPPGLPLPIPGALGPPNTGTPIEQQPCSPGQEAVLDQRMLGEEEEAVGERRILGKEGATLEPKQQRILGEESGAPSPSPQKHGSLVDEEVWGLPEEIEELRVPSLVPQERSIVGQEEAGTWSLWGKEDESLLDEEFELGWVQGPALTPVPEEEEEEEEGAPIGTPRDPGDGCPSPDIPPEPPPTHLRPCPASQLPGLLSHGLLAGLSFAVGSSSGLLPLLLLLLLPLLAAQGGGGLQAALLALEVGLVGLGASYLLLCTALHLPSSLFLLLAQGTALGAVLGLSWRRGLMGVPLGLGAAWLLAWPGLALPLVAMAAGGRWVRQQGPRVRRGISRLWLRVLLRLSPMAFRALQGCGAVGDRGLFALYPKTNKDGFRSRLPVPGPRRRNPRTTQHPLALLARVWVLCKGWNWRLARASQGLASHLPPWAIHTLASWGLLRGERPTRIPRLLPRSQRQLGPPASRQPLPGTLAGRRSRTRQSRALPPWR

TTK = molecular target: T3, TTK (Homo sapiens, UniProt P33981)
T3 sequence (P33981 1-857): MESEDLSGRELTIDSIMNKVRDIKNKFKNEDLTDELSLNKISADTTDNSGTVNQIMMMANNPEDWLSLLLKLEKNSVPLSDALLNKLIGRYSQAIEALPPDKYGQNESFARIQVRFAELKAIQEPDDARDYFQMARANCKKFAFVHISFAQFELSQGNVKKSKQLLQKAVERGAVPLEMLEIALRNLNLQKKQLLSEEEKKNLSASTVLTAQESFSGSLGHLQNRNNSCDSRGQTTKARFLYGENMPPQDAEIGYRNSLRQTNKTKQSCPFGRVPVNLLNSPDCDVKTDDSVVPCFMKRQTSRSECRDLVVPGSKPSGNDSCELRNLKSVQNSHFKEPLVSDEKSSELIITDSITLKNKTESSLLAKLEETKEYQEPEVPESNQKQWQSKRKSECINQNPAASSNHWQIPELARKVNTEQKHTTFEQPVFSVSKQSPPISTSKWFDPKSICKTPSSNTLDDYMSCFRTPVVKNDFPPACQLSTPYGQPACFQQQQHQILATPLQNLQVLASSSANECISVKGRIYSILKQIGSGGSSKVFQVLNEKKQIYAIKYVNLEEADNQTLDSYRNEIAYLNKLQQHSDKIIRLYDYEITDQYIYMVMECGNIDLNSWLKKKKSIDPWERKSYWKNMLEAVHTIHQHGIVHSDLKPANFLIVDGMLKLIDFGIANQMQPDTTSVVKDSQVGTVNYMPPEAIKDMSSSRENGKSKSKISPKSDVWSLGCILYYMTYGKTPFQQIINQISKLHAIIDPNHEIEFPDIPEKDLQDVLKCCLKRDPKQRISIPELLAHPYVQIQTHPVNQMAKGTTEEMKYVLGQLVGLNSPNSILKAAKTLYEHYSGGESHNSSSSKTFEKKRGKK

With `CN1CCN(c2ccc(Nc3ncc(C#N)c(Nc4ccccc4C(N)=O)n3)cc2)CC1.Cl` [TCMDC-134116] the Kd (ACVR1) was 2200 nM, the Kd (CDK2) was 135 nM and 131 nM and the Kd (TAOK2) was 274 nM. The Kd (TTK) was 439 nM and 357 nM.
